Numbers after ± are expanded uncertainties.
Assay: molar heat capacity at constant pressure
Details: 101.33 kPa, Liquid, Small sample (50 mg) DSC

OCCO [1,2-ethanediol]
Details	molar heat capacity at constant pressure [J/K/mol]
293.15 K	148.1 ± 2.3
294.65 K	148.57 ± 2.3
296.15 K	149.05 ± 2.3
297.65 K	149.53 ± 2.3
298.15 K	149.69 ± 2.3
299.15 K	150.01 ± 2.3
300.65 K	150.48 ± 2.3
302.15 K	150.96 ± 2.3
303.65 K	151.44 ± 2.4
305.15 K	151.92 ± 2.4
306.65 K	152.4 ± 2.4
308.15 K	152.88 ± 2.4
309.65 K	153.36 ± 2.4
311.15 K	153.83 ± 2.4
312.65 K	154.31 ± 2.4
314.15 K	154.79 ± 2.4
315.65 K	155.27 ± 2.4
317.15 K	155.75 ± 2.4
318.65 K	156.23 ± 2.4
320.15 K	156.71 ± 2.4
321.65 K	157.19 ± 2.4
323.15 K	157.67 ± 2.4
324.65 K	158.15 ± 2.5
326.15 K	158.63 ± 2.5
327.65 K	159.11 ± 2.5
329.15 K	159.6 ± 2.5
330.65 K	160.08 ± 2.5
332.15 K	160.56 ± 2.5
333.65 K	161.04 ± 2.5
335.15 K	161.52 ± 2.5
336.65 K	162 ± 2.5
338.15 K	162.49 ± 2.5
339.65 K	162.97 ± 2.5
341.15 K	163.45 ± 2.5
342.65 K	163.93 ± 2.5
344.15 K	164.42 ± 2.5
345.65 K	164.9 ± 2.5
347.15 K	165.38 ± 2.6
348.65 K	165.86 ± 2.6
350.15 K	166.35 ± 2.6
351.65 K	166.83 ± 2.6
353.15 K	167.32 ± 2.6

OCCCCO [1,4-butanediol]
Details	molar heat capacity at constant pressure [J/K/mol]
293.15 K	200.51 ± 3.1
294.65 K	201.33 ± 3.1
296.15 K	202.16 ± 3.1
297.65 K	202.99 ± 3.1
298.15 K	203.27 ± 3.1
299.15 K	203.82 ± 3.2
300.65 K	204.67 ± 3.2
302.15 K	205.51 ± 3.2
303.65 K	206.36 ± 3.2
305.15 K	207.22 ± 3.2
306.65 K	208.08 ± 3.2
308.15 K	208.95 ± 3.2
309.65 K	209.82 ± 3.2
311.15 K	210.7 ± 3.3
312.65 K	211.58 ± 3.3
314.15 K	212.47 ± 3.3
315.65 K	213.36 ± 3.3
317.15 K	214.26 ± 3.3
318.65 K	215.17 ± 3.3
320.15 K	216.08 ± 3.4
321.65 K	216.99 ± 3.4
323.15 K	217.91 ± 3.4
324.65 K	218.83 ± 3.4
326.15 K	219.76 ± 3.4
327.65 K	220.7 ± 3.4
329.15 K	221.64 ± 3.4
330.65 K	222.58 ± 3.5
332.15 K	223.53 ± 3.5
333.65 K	224.49 ± 3.5
335.15 K	225.45 ± 3.5
336.65 K	226.41 ± 3.5
338.15 K	227.38 ± 3.5
339.65 K	228.36 ± 3.5
341.15 K	229.34 ± 3.5
342.65 K	230.33 ± 3.6
344.15 K	231.32 ± 3.6
345.65 K	232.32 ± 3.6
347.15 K	233.32 ± 3.6
348.65 K	234.32 ± 3.6
350.15 K	235.34 ± 3.6
351.65 K	236.35 ± 3.7
353.15 K	237.38 ± 3.7

OCCCCCO [1,5-pentanediol]
Details	molar heat capacity at constant pressure [J/K/mol]
293.15 K	229.04 ± 3.5
294.65 K	230.06 ± 3.6
296.15 K	231.1 ± 3.6
297.65 K	232.14 ± 3.6
298.15 K	232.49 ± 3.6
299.15 K	233.19 ± 3.6
300.65 K	234.25 ± 3.6
302.15 K	235.31 ± 3.6
303.65 K	236.39 ± 3.7
305.15 K	237.47 ± 3.7
306.65 K	238.56 ± 3.7
308.15 K	239.66 ± 3.7
309.65 K	240.77 ± 3.7
311.15 K	241.89 ± 3.8
312.65 K	243.01 ± 3.8
314.15 K	244.14 ± 3.8
315.65 K	245.28 ± 3.8
317.15 K	246.43 ± 3.8
318.65 K	247.59 ± 3.8
320.15 K	248.76 ± 3.9
321.65 K	249.93 ± 3.9
323.15 K	251.11 ± 3.9
324.65 K	252.3 ± 3.9
326.15 K	253.5 ± 3.9
327.65 K	254.7 ± 4
329.15 K	255.92 ± 4
330.65 K	257.14 ± 4
332.15 K	258.37 ± 4
333.65 K	259.61 ± 4
335.15 K	260.86 ± 4
336.65 K	262.11 ± 4.1
338.15 K	263.38 ± 4.1
339.65 K	264.65 ± 4.1
341.15 K	265.93 ± 4.1
342.65 K	267.22 ± 4.1
344.15 K	268.51 ± 4.2
345.65 K	269.82 ± 4.2
347.15 K	271.13 ± 4.2
348.65 K	272.45 ± 4.2
350.15 K	273.78 ± 4.2
351.65 K	275.12 ± 4.3
353.15 K	276.46 ± 4.3

OCCCCCCO [1,6-hexanediol]
Details	molar heat capacity at constant pressure [J/K/mol]
318.65 K	282.66 ± 4.4
320.15 K	284.25 ± 4.4
321.65 K	285.84 ± 4.4
323.15 K	287.42 ± 4.5
324.65 K	288.99 ± 4.5
326.15 K	290.55 ± 4.5
327.65 K	292.12 ± 4.5
329.15 K	293.67 ± 4.5
330.65 K	295.22 ± 4.6
332.15 K	296.76 ± 4.6
333.65 K	298.3 ± 4.6
335.15 K	299.83 ± 4.6
336.65 K	301.36 ± 4.7
338.15 K	302.88 ± 4.7
339.65 K	304.4 ± 4.7
341.15 K	305.91 ± 4.7
342.65 K	307.41 ± 4.8
344.15 K	308.91 ± 4.8
345.65 K	310.4 ± 4.8
347.15 K	311.88 ± 4.8
348.65 K	313.36 ± 4.8
350.15 K	314.84 ± 4.9
351.65 K	316.31 ± 4.9
353.15 K	317.77 ± 4.9

OCCCCCCCO [1,7-heptanediol]
Details	molar heat capacity at constant pressure [J/K/mol]
293.15 K	292.06 ± 4.5
294.65 K	293.4 ± 4.5
296.15 K	294.75 ± 4.6
297.65 K	296.11 ± 4.6
299.15 K	297.48 ± 4.6
300.65 K	298.87 ± 4.6
302.15 K	300.26 ± 4.7
303.65 K	301.67 ± 4.7
305.15 K	303.09 ± 4.7
306.65 K	304.51 ± 4.7
308.15 K	305.95 ± 4.7
309.65 K	307.41 ± 4.8
311.15 K	308.87 ± 4.8
312.65 K	310.34 ± 4.8
314.15 K	311.83 ± 4.8
315.65 K	313.33 ± 4.8
317.15 K	314.83 ± 4.9
318.65 K	316.35 ± 4.9
320.15 K	317.88 ± 4.9
321.65 K	319.43 ± 5
323.15 K	320.98 ± 5
324.65 K	322.54 ± 5
326.15 K	324.12 ± 5
327.65 K	325.71 ± 5
329.15 K	327.31 ± 5.1
330.65 K	328 ± 5
332.15 K	330.54 ± 5.1
333.65 K	332.17 ± 5.2
335.15 K	333.81 ± 5.2
336.65 K	335.47 ± 5.2
338.15 K	337.13 ± 5.2
339.65 K	338.81 ± 5.2
341.15 K	340.5 ± 5.3
342.65 K	342.2 ± 5.3
344.15 K	343.91 ± 5.3
345.65 K	345.63 ± 5.3
347.15 K	347.37 ± 5.4
348.65 K	349.11 ± 5.4
350.15 K	350.87 ± 5.4
351.65 K	352.64 ± 5.5
353.15 K	354.42 ± 5.5

OCCCCCCCCO [1,8-octanediol]
Details	molar heat capacity at constant pressure [J/K/mol]
333.65 K	371.35 ± 5.8
335.15 K	373.24 ± 5.8
336.65 K	375.13 ± 5.8
338.15 K	377.03 ± 5.8
339.65 K	378.93 ± 5.9
341.15 K	380.83 ± 5.9
342.65 K	382.74 ± 5.9
344.15 K	384.65 ± 6
345.65 K	386.56 ± 6
347.15 K	388.48 ± 6
348.65 K	390.4 ± 6
350.15 K	392.32 ± 6.1
351.65 K	394.24 ± 6.1
353.15 K	396.17 ± 6.1

OCCCCCCCCCO [1,9-nonanediol]
Details	molar heat capacity at constant pressure [J/K/mol]
318.65 K	389.02 ± 6
320.15 K	391.15 ± 6.1
321.65 K	393.27 ± 6.1
323.15 K	395.39 ± 6.1
324.65 K	397.51 ± 6.2
326.15 K	399.62 ± 6.2
327.65 K	401.73 ± 6.2
329.15 K	403.84 ± 6.3
330.65 K	405.94 ± 6.3
332.15 K	408.03 ± 6.3
333.65 K	410.12 ± 6.3
335.15 K	412.21 ± 6.4
336.65 K	414.3 ± 6.4
338.15 K	416.38 ± 6.5
339.65 K	418.45 ± 6.5
341.15 K	420.52 ± 6.5
342.65 K	422.59 ± 6.5
344.15 K	424.66 ± 6.6
345.65 K	426.72 ± 6.6
347.15 K	428.77 ± 6.6
348.65 K	430.82 ± 6.7
350.15 K	432.87 ± 6.7
351.65 K	434.92 ± 6.7
353.15 K	436.95 ± 6.8

OCCCO [propan-1,3-diol]
Details	molar heat capacity at constant pressure [J/K/mol]
293.15 K	173.4 ± 2.7
294.65 K	174.11 ± 2.7
296.15 K	174.83 ± 2.7
297.65 K	175.54 ± 2.7
298.15 K	175.78 ± 2.7
299.15 K	176.26 ± 2.7
300.65 K	176.98 ± 2.7
302.15 K	177.7 ± 2.8
303.65 K	178.42 ± 2.8
305.15 K	179.15 ± 2.8
306.65 K	179.87 ± 2.8
308.15 K	180.59 ± 2.8
309.65 K	181.32 ± 2.8
311.15 K	182.05 ± 2.8
312.65 K	182.78 ± 2.8
314.15 K	183.51 ± 2.8
315.65 K	184.24 ± 2.9
317.15 K	184.97 ± 2.9
318.65 K	185.7 ± 2.9
320.15 K	186.44 ± 2.9
321.65 K	187.17 ± 2.9
323.15 K	187.91 ± 2.9
324.65 K	188.65 ± 2.9
326.15 K	189.38 ± 2.9
327.65 K	190.12 ± 3
329.15 K	190.87 ± 3
330.65 K	191.61 ± 3
332.15 K	192.35 ± 3
333.65 K	193.1 ± 3
335.15 K	193.84 ± 3
336.65 K	194.59 ± 3
338.15 K	195.34 ± 3
339.65 K	196.09 ± 3
341.15 K	196.84 ± 3
342.65 K	197.59 ± 3.1
344.15 K	198.34 ± 3.1
345.65 K	199.1 ± 3.1
347.15 K	199.85 ± 3.1
348.65 K	200.61 ± 3.1
350.15 K	201.37 ± 3.1
351.65 K	202.13 ± 3.1
353.15 K	202.89 ± 3.1

Reference: the NIST ThermoML archive (doi:10.1021/je800356x)
